Source: patent US12583826B2, “[(1,5-diphenyl-1H-1,2,4-triazol-3-yl)oxy]acetic acid derivatives and salts thereof, crop protection compositions comprising them, methods for producing them and use thereof as safeners” (Bayer Aktiengesellschaft, priority 2019, dated 2026)

What was measured:
Assay type in all cases: in vivo
[1] = system: summer wheat (TRZAS; cv. Triso); assay: Relative action (efficacy code): reduction of damage by mesosulfuron-methyl on summer wheat; set-up: key: 0: no reduction in damage (appearance corresponding to the herbicide control); 1: slight reduction in damage; 2: distinct reduction in damage; 3: significant reduction in damage; 4: complete reduction in damage (appearance corresponding to the untreated control); conditions: then mesosulfuron-methyl 40-60 g/ha, visual, 9-13 days after application
Method: 2.3 Relative Action of Selected Compounds of the Invention Using the Example of Reduction of Damage by Mesosulfuron-Methyl on Summer Wheat (TRZAS) The seeds of the crop plants to be treated are laid out in sandy loam in plastic pots (diameter ˜4 cm), covered with soil and grown in a greenhouse under good conditions for germination and growth. The trial plants were treated at the early leaf stage (BBCH10—BBCH12). In the course of this, the inventive compounds of the general formula (I) formulated in the form of wettable powders (WP) were sprayed onto the above-ground parts of the plants as an aqueous suspension with a water application rate corresponding to 800 l/ha with addition of wetting agent (e.g. 0.2% Genapol-LRO or 0.2% Mero) in the specified dose. This was followed by the application of the herbicide. For this purpose, mesosulfuron-methyl, formulated in the form of water-dispersible granules (WG), was sprayed onto the above-ground parts of the plants in the form of an aqueous dispersion with a water application rate corresponding to 800 l/ha with addition of wetting agent (e.g. 0.2% Genapol-LRO or 1 l/ha Biopower) in a dose of 40-60 g/ha. The dose of the herbicide was chosen here such that it causes visually apparent damage (min. 30%, max. 75%) compared to untreated crop plants at the evaluation time on a control group of crop plants without safener treatment that were included in the same trial. After application, the plants were cultivated under good growth conditions in a greenhouse. 9-13 days after application, the efficacy of the test compounds was assessed visually. For this purpose, the appearance of the plants treated with the test compound and herbicide was compared to the corresponding herbicide controls (without safener; with clearly visible damage) and the untreated controls (without damage). The damage-reducing effect of the test compounds was expressed here in graded efficacy codes according to the following scheme: • 0: no reduction in damage (appearance corresponding to the herbicide control) • 1: slight reduction in damage • 2: distinct reduction in damage • 3: significant reduction in damage • 4: complete reduction in damage (appearance corresponding to the untreated control) The trials show clear efficacy of the substances of the invention with regard to the reduction in damage to the summer wheat crop plant (TRZAS; cv. Triso) caused by the herbicide mesosulfuron-methyl: […]

[2] = system: summer barley (HORVS; cv. Montoya); assay: Relative action (efficacy code): reduction of damage by mesosulfuron-methyl on summer barley; set-up: key: 0: no reduction in damage (appearance corresponding to the herbicide control); 1: slight reduction in damage; 2: distinct reduction in damage; 3: significant reduction in damage; 4: complete reduction in damage (appearance corresponding to the untreated control); conditions: then mesosulfuron-methyl 40-60 g/ha, visual, 9-13 days after application
Method: 2.4 Relative Action of Selected Compounds of the Invention Using the Example of Reduction of Damage by Mesosulfuron-Methyl on Summer Barley (HORVS) The seeds of the crop plants to be treated are laid out in sandy loam in plastic pots (diameter ˜4 cm), covered with soil and grown in a greenhouse under good conditions for germination and growth. The trial plants were treated at the early leaf stage (BBCH10—BBCH12). In the course of this, the inventive compounds of the general formula (I) formulated in the form of wettable powders (WP) were sprayed onto the above-ground parts of the plants as an aqueous suspension with a water application rate corresponding to 800 l/ha with addition of wetting agent (e.g. 0.2% Genapol-LRO or 0.2% Mero) in the specified dose. This was followed by the application of the herbicide. For this purpose, mesosulfuron-methyl, formulated in the form of water-dispersible granules (WG), was sprayed onto the above-ground parts of the plants in the form of an aqueous dispersion with a water application rate corresponding to 800 l/ha with addition of wetting agent (e.g. 0.2% Genapol-LRC) or 1 l/ha Biopower) in a dose of 40-60 g/ha. The dose of the herbicide was chosen here such that it causes visually apparent damage (min. 30%, max. 75%) compared to untreated crop plants at the evaluation time on a control group of crop plants without safener treatment that were included in the same trial. After application, the plants were cultivated under good growth conditions in a greenhouse. 9-13 days after application, the efficacy of the test compounds was assessed visually. For this purpose, the appearance of the plants treated with the test compound and herbicide was compared to the corresponding herbicide controls (without safener; with clearly visible damage) and the untreated controls (without damage). The damage-reducing effect of the test compounds was expressed here separately for 2 repeats in graded efficacy codes according to the following scheme: • 0: no reduction in damage (appearance corresponding to the herbicide control) • 1: slight reduction in damage • 2: distinct reduction in damage • 3: significant reduction in damage • 4: complete reduction in damage (appearance corresponding to the untreated control) The trials show clear efficacy of the substances of the invention with regard to the reduction in damage to the summer barley crop plant (HORVS; cv. Montoya) caused by the herbicide mesosulfuron-methyl: […]

[3] = system: summer wheat (TRZAS; cv. Triso); assay: Absolute action: reduction of damage by mesosulfuron-methyl on summer wheat, greenhouse post-emergence; conditions: for Absolute reduction in herbicide damage (damage without safener minus damage with safener): mesosulfuron-methyl 20 g/ha; for Herbicide damage with compound of the formula (I): then mesosulfuron-methyl 20 g/ha, visual 0-100% scale, 14-21 days after application
Method: (§1) 2.1 Absolute Action of Selected Compounds of the Invention Using the Example of Reduction of Damage by Mesosulfuron-Methyl on Summer Wheat (TRZAS) The seeds of the crop plants to be treated are laid out in sandy loam in wood fiber or plastic pots (diameter ˜4 cm), covered with soil and grow in a greenhouse under good conditions for germination and growth. The trial plants were treated at the early leaf stage (BBCH10—BBCH12). In the course of this, the inventive compounds of the general formula (I) formulated in the form of wettable powders (WP) were sprayed onto the above-ground parts of the plants as an aqueous suspension with a water application rate corresponding to 800 l/ha with addition of wetting agent (e.g. 0.2% agrotin) in the specified dose. This was followed by the application of the herbicide. For this purpose, mesosulfuron-methyl, formulated in the form of water-dispersible granules (WG), was sprayed onto the above-ground parts of the plants in the form of an aqueous dispersion with a water application rate corresponding to 800 l/ha with addition of wetting agent (e.g. 0.2% agrotin) in a dose of 20 g/ha. The dose of the herbicide was chosen here such that it causes visually apparent damage (min. 30%, max. 75%) compared to untreated crop plants at the evaluation time on a control group of crop plants without safener treatment that were included in the same trial. After application, the plants were cultivated under good growth conditions in a greenhouse. The damage was visually assessed 14-21 days after application. The damage effect was assessed visually on a scale of 0-100% by comparison with untreated control plants, and averaged over 2-3 repeats per treatment. Examples: • 0%=no noticeable effect compared to the untreated plant • 20%=the treated plant population has 20% damage compared to the untreated control population (e.g. growth height, leaf damage, etc.) • 100%=treated plants completely damaged/killed.

[4] = system: summer barley (HORVS; cv. Montoya); assay: Absolute action: reduction of damage by mesosulfuron-methyl on summer barley, greenhouse post-emergence; conditions: for Absolute reduction in damage (difference): mesosulfuron-methyl 20 g/ha, damage without minus with safener; for Herbicide damage with compound of the formula (I) (%): then mesosulfuron-methyl 20 g/ha, visual 0-100% scale, 14-21 days after application
Method: as §1, with “2.2 Absolute Action” for “2.1 Absolute Action”, “on Summer Barley (HORVS) The seeds” for “on Summer Wheat (TRZAS) The seeds”, “treated are aid out in” for “treated are laid out in”, “soil and grown in a” for “soil and grow in a”, “leaf stage (BBCE10-BBCH12). In the” for “leaf stage (BBCH10—BBCH12). In the”, “control population (e.g.: growth height,” for “control population (e.g. growth height,”

[5] = safener dose 100 (unit not given)
[6] = safener dose 500 (unit not given)

Compound	Efficacy of the safener (efficacy code) [1, 5]	Efficacy of the safener (efficacy code) [1, 6]	Efficacy of the safener (efficacy code) ([2]; safener 100 g/ha)	Efficacy of the safener (efficacy code) ([2]; safener 500 g/ha)	also measured
O=C(O)COc1nc(-c2ccccc2)n(-c2c(F)cccc2F)n1 [I.3-43]	2	2	2	2	
COC(=O)COc1nc(-c2ccc(F)cc2F)n(-c2ccc(Cl)cc2)n1 [I.40-7, Methyl {[1-(4-chlorophenyl)-5-(2,4-difluorophenyl)-1H-1,2,4-triazol-3-yl]oxy}acetate]	4	4	2	4	
COC(=O)COc1nc(-c2ccc(F)cc2F)n(-c2ccc(F)cc2Cl)n1 [I.40-48]	2		2		
COC(=O)COc1nc(-c2ccc(F)cc2F)n(-c2ccc(Cl)cc2F)n1 [I.40-49]	4	4	4	4	
CCOC(=O)COc1nc(-c2ccc(F)cc2F)n(-c2ccc(Cl)cc2F)n1 [I.41-49]	2		2		
O=C(O)COc1nc(-c2ccc(F)cc2F)n(-c2c(F)cccc2F)n1 [I.42-43]	2	2	2	2	
O=C(O)COc1nc(-c2ccc(F)cc2F)n(-c2ccc(Cl)cc2F)n1 [I.42-49]	2	2	2	3	
O=C(O)COc1nc(-c2ccc(Cl)cc2F)n(-c2ccc(Cl)cc2F)n1 [I.48-49]					Absolute reduction in herbicide damage (damage without safener minus damage with safener) ([3]; safener 125 g a.i./ha): 37%; Herbicide damage with compound of the formula (I) ([3]; safener 125 g a.i./ha): 23%; Absolute reduction in herbicide damage (damage without safener minus damage with safener) ([3]; safener 500 g a.i./ha): 40%; Herbicide damage with compound of the formula (I) ([3]; safener 500 g a.i./ha): 20%; Absolute reduction in damage (difference) ([4]; safener 125 g a.i./ha): 40%; Herbicide damage with compound of the formula (I) (%) ([4]; safener 125 g a.i./ha): 20%; Absolute reduction in damage (difference) ([4]; safener 500 g a.i./ha): 60%; Herbicide damage with compound of the formula (I) (%) ([4]; safener 500 g a.i./ha): 0%
CCOC(=O)COc1nc(-c2cc(F)cc(F)c2)n(-c2ccc(F)cc2)n1 [I.53-4]					Absolute reduction in herbicide damage (damage without safener minus damage with safener) ([3]; safener 1000 g/ha): 20%; Herbicide damage with compound of the formula (I) ([3]; safener 1000 g/ha): 23%; Absolute reduction in damage (difference) ([4]; safener 250 g a.i./ha): 27%; Herbicide damage with compound of the formula (I) (%) ([4]; safener 250 g a.i./ha): 33%
CCOC(=O)COc1nc(-c2cc(F)cc(F)c2)n(-c2ccc(F)cc2F)n1 [I.53-38]					Absolute reduction in herbicide damage (damage without safener minus damage with safener) ([3]; safener 1000 g/ha): 20%; Herbicide damage with compound of the formula (I) ([3]; safener 1000 g/ha): 23%; Absolute reduction in damage (difference) ([4]; safener 250 g a.i./ha): 30%; Herbicide damage with compound of the formula (I) (%) ([4]; safener 250 g a.i./ha): 30%; Absolute reduction in damage (difference) ([4]; safener 1000 g a.i./ha): 40%; Herbicide damage with compound of the formula (I) (%) ([4]; safener 1000 g a.i./ha): 20%
O=C(O)COc1nc(-c2cc(F)cc(F)c2)n(-c2ccc(F)cc2)n1 [I.54-4]					Absolute reduction in herbicide damage (damage without safener minus damage with safener) ([3]; safener 250 g/ha): 23%; Herbicide damage with compound of the formula (I) ([3]; safener 250 g/ha): 20%; Absolute reduction in damage (difference) ([4]; safener 250 g a.i./ha): 23%; Herbicide damage with compound of the formula (I) (%) ([4]; safener 250 g a.i./ha): 37%
O=C(O)COc1nc(-c2c(F)cccc2F)n(-c2ccc(Cl)cc2F)n1 [I.57-49]			2	2	
